Experimental data published in patent US20060199876A1, “Bioceramic composite coatings and process for making same” (The University of British Columbia, priority 2005, published 2006).

Test: Drug release from PCMC composite coating with PLGA diffusion barrier
Assay type: physicochemical
Settings: release from HAP/PLGA PCMC coating of Example 9 (paclitaxel in HAP phase, Rapamycin in polymer phase) covered with 2 μm thick PLGA (85:15) layer
Method: Porous HAP coating was deposited on stent as in the above Example 2. The HAP porous coating stents was impregnated into 2 wt % paclitaxel methanol solution for 20 min and then removed extra solution by high speed spinning, then dried in an oven for 2 hours. The paclitaxel was filled into mesopores and partial into large pore micropores. The paclitaxel loaded stents were subsequently impregnated with 10 wt % PLGA acetone solution containing 2 wt % Rapamycin and then the extra solution removed by spinning. The biopolymer PLGA filled inside pores provides extra flexibility for HAP coatings and diffusion barrier for controlling drug release profiles. Rapamycin in the polymer phase will release much faster than that of paclitaxel only in the HAP phase.
As illustrated in the above Example 9, different drugs were encapsulated into the polymer and HAP phases. In order to add further controls for drug release profile, e.g. to further slow down the drug release rate, a functional diffusion barrier was deposited on the surface of the composite PCMC coating. In this particular example, a 2 μm thick PLGA (85:15) layer was deposited on the PCMC surface by spin-coating. Rapamycin release from such modified PCMC coating was sustained for 3-5 months and paclitaxel for 6-12 months.

CC(=O)O[C@H]1C(=O)[C@@]2(C)[C@H]([C@H](OC(=O)c3ccccc3)[C@]3(O)C[C@H](OC(=O)[C@H](O)[C@@H](NC(=O)c4ccccc4)c4ccccc4)C(C)=C1C3(C)C)[C@]1(OC(C)=O)CO[C@@H]1C[C@@H]2O [paclitaxel]
drug release sustained for: 6-12 months
